We go through 1 compound from article PMC8248052 (Chembiochem, 2021).

The target of the test is T1, SMYD3 (Homo sapiens, UniProt Q9H7B4).
T1 sequence (Q9H7B4 1-428): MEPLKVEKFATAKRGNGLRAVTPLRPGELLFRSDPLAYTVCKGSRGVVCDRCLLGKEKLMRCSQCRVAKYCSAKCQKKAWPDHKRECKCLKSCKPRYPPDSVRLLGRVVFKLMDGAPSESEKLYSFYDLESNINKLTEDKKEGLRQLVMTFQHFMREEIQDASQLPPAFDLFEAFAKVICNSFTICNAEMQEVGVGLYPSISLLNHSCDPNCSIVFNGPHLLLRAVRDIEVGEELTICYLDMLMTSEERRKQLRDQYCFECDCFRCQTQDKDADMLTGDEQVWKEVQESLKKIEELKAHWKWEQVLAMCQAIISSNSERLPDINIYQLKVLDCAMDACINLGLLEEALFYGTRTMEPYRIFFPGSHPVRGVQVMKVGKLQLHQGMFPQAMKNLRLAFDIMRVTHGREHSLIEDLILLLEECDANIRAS
Nature of the test: LC-MS methyltransferase assay, MAP3K2 […]-274 peptide, inhibition at […]. The format is biochemical. As to conditions: 0.63 µM.

As for `O=C1Cc2cc(C(=O)NC3C[C@H]4CC[C@@H](C3)N4S(=O)(=O)CC3CCN(CCCC(F)(F)F)CC3)c(Cl)cc2N1` (stereo partly shown) [EPZ031686], the “Inhibition [%]” value is given as 52.8±1.7.
